# Assays:
# mouse MC4R [1] = target: T1, mouse MC4R (Mus musculus, UniProt P56450); assay: cAMP AlphaScreen antagonist assay; details: highest assayed concentrations
# mouse MC5R [2] = target: T2, mouse MC5R (Mus musculus, UniProt P41149); details: for mMC5R inverse agonist, percent change from basal at 100 μM / mMC5R percent maximal stimulatory response at 100 μM: 100000.0; for MC5R activity in words: up to 100 μM
# mouse MC1R [3] = target: T3, mouse MC1R (Mus musculus, UniProt Q01727); assay: cell-based
# T3 sequence (Q01727 whole entry): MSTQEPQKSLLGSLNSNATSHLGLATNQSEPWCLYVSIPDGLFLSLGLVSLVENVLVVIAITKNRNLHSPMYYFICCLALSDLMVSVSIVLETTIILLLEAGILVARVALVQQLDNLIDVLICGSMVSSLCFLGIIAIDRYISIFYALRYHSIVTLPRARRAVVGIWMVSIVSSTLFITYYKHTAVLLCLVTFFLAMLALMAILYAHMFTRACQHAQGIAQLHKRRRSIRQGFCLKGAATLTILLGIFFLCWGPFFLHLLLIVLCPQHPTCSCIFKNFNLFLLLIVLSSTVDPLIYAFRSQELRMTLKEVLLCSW
# mouse MC4R [4] = target: T1, mouse MC4R; assay: cAMP AlphaScreen agonist assay, HEK293 cells stably expressing mouse MC4R; details: agonist (up to 100 μM) and antagonist activity at the concentrations assayed
# mouse MC1R [5] = target: T3, mouse MC1R; details: for mMC1R percent maximal stimulatory response at 100 μM: 100000.0; for MC1R potency increase compared to the starting ligand 2: agonist potency relative to 2
# mouse MC3R [6] = target: T4, mouse MC3R (Mus musculus, UniProt P33033); details: for MC3R activity in words: agonist (up to 100 μM) and antagonist activity at the concentrations assayed; for mMC3R percent maximal stimulatory response at 100 μM: 100000.0
# T4 sequence (P33033 whole entry): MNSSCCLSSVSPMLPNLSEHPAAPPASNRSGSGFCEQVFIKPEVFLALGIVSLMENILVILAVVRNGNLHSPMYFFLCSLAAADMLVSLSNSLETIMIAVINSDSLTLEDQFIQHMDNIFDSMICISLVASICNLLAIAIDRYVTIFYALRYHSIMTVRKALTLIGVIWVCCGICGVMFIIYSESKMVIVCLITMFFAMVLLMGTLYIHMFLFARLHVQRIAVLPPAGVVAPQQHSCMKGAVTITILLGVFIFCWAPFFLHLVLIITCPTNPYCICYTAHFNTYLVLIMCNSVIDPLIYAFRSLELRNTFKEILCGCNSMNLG
# mouse MC3R [7] = target: T4, mouse MC3R; assay: cAMP AlphaScreen antagonist assay
# mouse MC5R [8] = target: T2, mouse MC5R; assay: cell-based
# mouse MC3R [9] = target: T4, mouse MC3R; assay: cell-based
# [10] = target: mouse melanocortin-5 receptor (mouse) (UniProt P41149)
# mouse melanocortin-5 receptor (mouse), sequence (P41149 whole entry): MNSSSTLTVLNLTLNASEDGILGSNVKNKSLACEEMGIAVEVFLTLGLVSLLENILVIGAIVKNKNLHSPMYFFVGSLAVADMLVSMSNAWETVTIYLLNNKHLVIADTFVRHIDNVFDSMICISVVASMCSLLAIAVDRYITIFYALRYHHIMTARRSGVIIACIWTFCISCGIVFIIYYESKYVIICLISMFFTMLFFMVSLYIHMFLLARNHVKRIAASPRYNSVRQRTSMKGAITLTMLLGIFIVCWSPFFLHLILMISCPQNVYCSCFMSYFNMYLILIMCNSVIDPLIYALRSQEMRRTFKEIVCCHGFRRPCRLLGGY
# [11] = target: mouse melanocortin-3 receptor (mouse) (UniProt P33033)
# mouse melanocortin-3 receptor (mouse), sequence (P33033 whole entry): as the sequence (P33033 whole entry) above
# [12] = target: mouse melanocortin-4 receptor (mouse) (UniProt P56450)
# mouse melanocortin-4 receptor (mouse), sequence (P56450 whole entry): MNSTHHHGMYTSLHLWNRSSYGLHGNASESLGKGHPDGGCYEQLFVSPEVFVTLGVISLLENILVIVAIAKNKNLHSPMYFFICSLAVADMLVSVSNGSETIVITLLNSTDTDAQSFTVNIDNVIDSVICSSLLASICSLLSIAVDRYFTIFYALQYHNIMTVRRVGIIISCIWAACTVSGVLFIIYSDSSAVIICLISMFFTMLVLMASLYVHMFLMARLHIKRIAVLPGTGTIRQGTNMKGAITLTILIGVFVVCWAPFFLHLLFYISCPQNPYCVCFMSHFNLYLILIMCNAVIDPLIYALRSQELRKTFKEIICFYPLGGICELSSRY
# T1 sequence (P56450 whole entry): as above
# T2 sequence (P41149 whole entry): as the sequence (P41149 whole entry) above
compound,measurement,setting,value
"C[C@@H]1NC(=O)[C@H](CC(N)=O)NC(=O)[C@H](Cc2ccccc2)NC(=O)[C@H](Cc2ccccc2)NC(=O)[C@@H](CCCNC(=N)N)NC(=O)[C@@H]2CCCN2C(=O)[C@H]2CCCN2C(=O)[C@H](Cc2ccccc2)NC1=O [Peptide 3, c[Pro-DArg-Phe-Phe-Asn-Ala-Phe-DPro]]",MC4R antagonist activity in words,mouse MC4R [1],did not possess antagonist activity
"C[C@@H]1NC(=O)[C@H](CC(N)=O)NC(=O)[C@H](Cc2ccccc2)NC(=O)[C@@H](Cc2ccccc2)NC(=O)[C@H](CCCNC(=N)N)NC(=O)[C@@H]2CCCN2C(=O)[C@H]2CCCN2C(=O)[C@H](Cc2ccccc2)NC1=O [Peptide 4, c[Pro-Arg-DPhe-Phe-Asn-Ala-Phe-DPro]]","mMC5R inverse agonist, percent change from basal at 100 μM",mouse MC5R [2],25%
same,MC5R activity in words,mouse MC5R [2],apparent inverse agonist activity
same,EC50,mouse MC1R [3],700 nM
"C[C@@H]1NC(=O)[C@H](CC(N)=O)NC(=O)[C@@H](Cc2ccccc2)NC(=O)[C@H](Cc2ccccc2)NC(=O)[C@H](CCCNC(=N)N)NC(=O)[C@@H]2CCCN2C(=O)[C@H]2CCCN2C(=O)[C@H](Cc2ccccc2)NC1=O [Peptide 5, c[Pro-Arg-Phe-DPhe-Asn-Ala-Phe-DPro]]",MC4R activity in words,mouse MC4R [4],loss of agonist and antagonist activities
same,mMC1R percent maximal stimulatory response at 100 μM,mouse MC1R [5],50%
"C[C@@H]1NC(=O)[C@H](CC(N)=O)NC(=O)[C@H](Cc2ccccc2)NC(=O)[C@@H](Cc2ccccc2)NC(=O)[C@@H](CCCNC(=N)N)NC(=O)[C@@H]2CCCN2C(=O)[C@H]2CCCN2C(=O)[C@H](Cc2ccccc2)NC1=O [Peptide 6, c[Pro-DArg-DPhe-Phe-Asn-Ala-Phe-DPro]]",MC4R activity in words,mouse MC4R [4],No activity was observed
same,MC3R activity in words,mouse MC3R [6],No activity was observed
same,mMC5R percent maximal stimulatory response at 100 μM,mouse MC5R [2],55%
same,EC50,mouse MC1R [3],500 nM
same,MC4R antagonist activity in words,mouse MC4R [1],did not possess antagonist activity
"C[C@@H]1NC(=O)[C@H](CC(N)=O)NC(=O)[C@@H](Cc2ccccc2)NC(=O)[C@H](Cc2ccccc2)NC(=O)[C@@H](CCCNC(=N)N)NC(=O)[C@@H]2CCCN2C(=O)[C@H]2CCCN2C(=O)[C@H](Cc2ccccc2)NC1=O [Peptide 7, c[Pro-DArg-Phe-DPhe-Asn-Ala-Phe-DPro]]",mMC3R percent maximal stimulatory response at 100 μM,mouse MC3R [6],35%
same,MC5R activity in words,mouse MC5R [2],full agonist
same,MC4R antagonist activity in words,mouse MC4R [1],did not possess antagonist activity
"C[C@@H]1NC(=O)[C@H](CC(N)=O)NC(=O)[C@@H](Cc2ccccc2)NC(=O)[C@@H](Cc2ccccc2)NC(=O)[C@H](CCCNC(=N)N)NC(=O)[C@@H]2CCCN2C(=O)[C@H]2CCCN2C(=O)[C@H](Cc2ccccc2)NC1=O [Peptide 8, c[Pro-Arg-DPhe-DPhe-Asn-Ala-Phe-DPro]]",EC50,mouse MC1R [3],800 nM
"C[C@@H]1NC(=O)[C@H](CC(N)=O)NC(=O)[C@@H](Cc2ccccc2)NC(=O)[C@@H](Cc2ccccc2)NC(=O)[C@@H](CCCNC(=N)N)NC(=O)[C@@H]2CCCN2C(=O)[C@H]2CCCN2C(=O)[C@H](Cc2ccccc2)NC1=O [Peptide 9, c[Pro-DArg-DPhe-DPhe-Asn-Ala-Phe-DPro]]",MC4R activity in words,mouse MC4R [4],No agonist or antagonist activity was observed
same,MC3R activity in words,mouse MC3R [6],No agonist or antagonist activity was observed
same,mMC5R percent maximal stimulatory response at 100 μM,mouse MC5R [2],55%
same,EC50,mouse MC1R [3],1300 nM
same,MC4R antagonist activity in words,mouse MC4R [1],did not possess antagonist activity
"C[C@@H]1NC(=O)[C@H](CN)NC(=O)[C@H](Cc2ccccc2)NC(=O)[C@H](Cc2ccccc2)NC(=O)[C@@H](CCCNC(=N)N)NC(=O)[C@@H]2CCCN2C(=O)[C@H]2CCCN2C(=O)[C@H](Cc2ccccc2)NC1=O [Peptide 10, c[Pro-DArg-Phe-Phe-Dap-Ala-Phe-DPro]]",mMC3R percent maximal stimulatory response at 100 μM,mouse MC3R [6],25%
same,MC5R activity in words,mouse MC5R [2],no activity was observed
same,Kb,mouse MC3R [7],2000 nM
same,EC50,mouse MC5R [8],> 100000 nM
same,mMC1R percent maximal stimulatory response at 100 μM,mouse MC1R [5],25%
"C[C@@H]1NC(=O)[C@H](CN)NC(=O)[C@H](Cc2ccccc2)NC(=O)[C@@H](Cc2ccccc2)NC(=O)[C@H](CCCNC(=N)N)NC(=O)[C@@H]2CCCN2C(=O)[C@H]2CCCN2C(=O)[C@H](Cc2ccccc2)NC1=O [Peptide 11, c[Pro-Arg-DPhe-Phe-Dap-Ala-Phe-DPro]]",EC50,mouse MC3R [9],> 100000 nM
same,MC3R activity in words,mouse MC3R [6],No agonist activity was observed
same,MC5R activity in words,mouse MC5R [2],No agonist activity was observed
same,EC50,mouse MC1R [3],230 ± 80 nM
same,Kb,mouse MC3R [7],1200 nM
same,EC50,mouse MC5R [8],> 100000 nM
same,MC1R potency increase compared to the starting ligand 2,mouse MC1R [5],"> 1,000 fold"
"C[C@@H]1NC(=O)[C@H](CN)NC(=O)[C@@H](Cc2ccccc2)NC(=O)[C@H](Cc2ccccc2)NC(=O)[C@H](CCCNC(=N)N)NC(=O)[C@@H]2CCCN2C(=O)[C@H]2CCCN2C(=O)[C@H](Cc2ccccc2)NC1=O [Peptide 12, c[Pro-Arg-Phe-DPhe-Dap-Ala-Phe-DPro]]",EC50,mouse MC3R [9],> 100000 nM
same,MC3R activity in words,mouse MC3R [6],No activity was observed
same,MC5R activity in words,mouse MC5R [2],No activity was observed
same,EC50,mouse MC1R [3],800 nM
same,Kb,mouse MC3R [7],> 3160 nM
same,EC50,mouse MC5R [8],> 100000 nM
"C[C@@H]1NC(=O)[C@H](CN)NC(=O)[C@H](Cc2ccccc2)NC(=O)[C@@H](Cc2ccccc2)NC(=O)[C@@H](CCCNC(=N)N)NC(=O)[C@@H]2CCCN2C(=O)[C@H]2CCCN2C(=O)[C@H](Cc2ccccc2)NC1=O [Peptide 13, c[Pro-DArg-DPhe-Phe-Dap-Ala-Phe-DPro]]",EC50,mouse MC3R [9],> 100000 nM
same,"mMC5R inverse agonist, percent change from basal at 100 μM",mouse MC5R [2],30%
same,MC5R activity in words,mouse MC5R [2],apparent inverse agonist activity
same,EC50,mouse MC1R [3],800 nM
same,Kb,mouse MC3R [7],1000 nM
"C[C@@H]1NC(=O)[C@H](CN)NC(=O)[C@@H](Cc2ccccc2)NC(=O)[C@H](Cc2ccccc2)NC(=O)[C@@H](CCCNC(=N)N)NC(=O)[C@@H]2CCCN2C(=O)[C@H]2CCCN2C(=O)[C@H](Cc2ccccc2)NC1=O [Peptide 14, c[Pro-DArg-Phe-DPhe-Dap-Ala-Phe-DPro]]",EC50,mouse MC3R [9],> 100000 nM
same,"mMC5R inverse agonist, percent change from basal at 100 μM",mouse MC5R [2],20%
same,MC5R activity in words,mouse MC5R [2],apparent inverse agonist activity
same,EC50,mouse MC1R [3],450 nM
same,Kb,mouse MC3R [7],2000 nM
"C[C@@H]1NC(=O)[C@H](CN)NC(=O)[C@@H](Cc2ccccc2)NC(=O)[C@@H](Cc2ccccc2)NC(=O)[C@H](CCCNC(=N)N)NC(=O)[C@@H]2CCCN2C(=O)[C@H]2CCCN2C(=O)[C@H](Cc2ccccc2)NC1=O [Peptide 15, c[Pro-Arg-DPhe-DPhe-Dap-Ala-Phe-DPro]]",EC50,mouse MC3R [9],> 100000 nM
same,MC5R activity in words,mouse MC5R [2],no activity was observed
same,EC50,mouse MC1R [3],700 ± 300 nM
same,Kb,mouse MC3R [7],2000 nM
same,EC50,mouse MC5R [8],> 100000 nM
same,MC1R potency increase compared to the starting ligand 2,mouse MC1R [5],"> 1,000 fold"
"C[C@@H]1NC(=O)[C@H](CN)NC(=O)[C@@H](Cc2ccccc2)NC(=O)[C@@H](Cc2ccccc2)NC(=O)[C@@H](CCCNC(=N)N)NC(=O)[C@@H]2CCCN2C(=O)[C@H]2CCCN2C(=O)[C@H](Cc2ccccc2)NC1=O [Peptide 16, c[Pro-DArg-DPhe-DPhe-Dap-Ala-Phe-DPro]]",EC50,mouse MC3R [9],> 100000 nM
same,MC3R activity in words,mouse MC3R [6],no activity
same,"mMC5R inverse agonist, percent change from basal at 100 μM",mouse MC5R [2],15%
same,MC5R activity in words,mouse MC5R [2],apparent inverse agonist activity
same,EC50,mouse MC1R [3],2200 nM
same,Kb,mouse MC3R [7],> 3160 nM
c[Pro-Arg-DPhe-DPhe-Dap-Ala-Phe-DPro] (peptide),"agonist EC50; cAMP AlphaScreen, HEK293 cells stably expressing mouse MC5R",[10],> 100000 nM
same,"agonist EC50; cAMP AlphaScreen, HEK293 cells stably expressing mouse MC3R",[11],> 100000 nM
same,"agonist EC50; cAMP AlphaScreen, HEK293 cells stably expressing mouse MC4R",[12],> 100000 nM
c[Pro-Arg-DPhe-Phe-Dap-Ala-Phe-DPro] (peptide),"agonist EC50; cAMP AlphaScreen, HEK293 cells stably expressing mouse MC5R",[10],> 100000 nM
same,"agonist EC50; cAMP AlphaScreen, HEK293 cells stably expressing mouse MC3R",[11],> 100000 nM
c[Pro-Arg-Phe-DPhe-Dap-Ala-Phe-DPro] (peptide),"agonist EC50; cAMP AlphaScreen, HEK293 cells stably expressing mouse MC5R",[10],> 100000 nM
same,"agonist EC50; cAMP AlphaScreen, HEK293 cells stably expressing mouse MC3R",[11],> 100000 nM
same,"agonist EC50; cAMP AlphaScreen, HEK293 cells stably expressing mouse MC4R",[12],> 100000 nM
c[Pro-DArg-DPhe-DPhe-Dap-Ala-Phe-DPro] (peptide),"agonist EC50; cAMP AlphaScreen, HEK293 cells stably expressing mouse MC3R",[11],> 100000 nM
same,"agonist EC50; cAMP AlphaScreen, HEK293 cells stably expressing mouse MC4R",[12],> 100000 nM
c[Pro-DArg-DPhe-Phe-Dap-Ala-Phe-DPro] (peptide),"agonist EC50; cAMP AlphaScreen, HEK293 cells stably expressing mouse MC3R",[11],> 100000 nM
same,"agonist EC50; cAMP AlphaScreen, HEK293 cells stably expressing mouse MC4R",[12],> 100000 nM
c[Pro-DArg-Phe-DPhe-Dap-Ala-Phe-DPro] (peptide),"agonist EC50; cAMP AlphaScreen, HEK293 cells stably expressing mouse MC3R",[11],> 100000 nM
same,"agonist EC50; cAMP AlphaScreen, HEK293 cells stably expressing mouse MC4R",[12],> 100000 nM
c[Pro-DArg-Phe-Phe-Dap-Ala-Phe-DPro] (peptide),"agonist EC50; cAMP AlphaScreen, HEK293 cells stably expressing mouse MC5R",[10],> 100000 nM

# Source: publication PMC6339850 (ACS chemical neuroscience, 2018)
